Consider 99 sequences from the OligoGym collection.

“And” between values parts separate entries of the source, which are not always exact repeats. Equal entries are not always repeated. After the bases stand the sugars from the 5' end (letter, count) and the backbone: PS all phosphorothioate, else s phosphorothioate and o phosphodiester by linkage. Methylation of C is not given here. k = constrained ethyl (cEt); d = 2'-deoxy (DNA)

In this data set the target is MALAT1. Conditions: ASO, A431, 0.005 µM.

In the case of ACTGGGAATACTCTTC (sugars k3 d10 k3, PS), the target mRNA inhibition turned out to be 28%.
Next, GAGGGCCTCTATTGCC (sugars k3 d10 k3, PS): 14%; GAAATCCCTTCAGGAT (sugars k3 d10 k3, PS): 14%; ACGAAGAGATACCTGT (sugars k3 d10 k3, PS): 18%.
With CCCCAGTTCAATACTT (sugars k3 d10 k3, PS), the target mRNA inhibition was 25%.
On to CACAAGGATCCAAGCT (sugars k3 d10 k3, PS), for which the target mRNA inhibition is 18%.
As to AGTGTAAAACATTGCC (sugars k3 d10 k3, PS), the target mRNA inhibition came to 7%.
Regarding TTAGTTGGCATCAAGG (sugars k3 d10 k3, PS), the target mRNA inhibition is 74% and 70%.
For ACAGAAGTCTCGGGCT (sugars k3 d10 k3, PS), the target mRNA inhibition stood at 19%.
Next, CAGTAGGCCAGACCAA (sugars k3 d10 k3, PS): 14%; ACTTATCCCTAACATG (sugars k3 d10 k3, PS): 13%; CCCCGTCCTGGAAACC (sugars k3 d10 k3, PS): 21%.
The figure for TACAAAAGCTACCATC (sugars k3 d10 k3, PS) is 12%; for TAACAGGCCACTGCCA (sugars k3 d10 k3, PS) it is 11%.
As to CAATCAAGTCAAGCTC (sugars k3 d10 k3, PS), the target mRNA inhibition is 3%.
On to AGGATTCTAGACAGAC (sugars k3 d10 k3, PS), for which the target mRNA inhibition was 72% and 71%.
For the sequence AAGAATCCCCCCCAAG (sugars k3 d10 k3, PS), the target mRNA inhibition came out at 28%.
Next, CCCCACGCCAACACAG (sugars k3 d10 k3, PS): 10%; ATTGTAGTTAATGTCA (sugars k3 d10 k3, PS): 50%.
As to AGCCTATAAGGACAGC (sugars k3 d10 k3, PS), the target mRNA inhibition is 23%.
With ATATTTAACTTCCCCC (sugars k3 d10 k3, PS), the target mRNA inhibition amounted to 30%.
In the case of TGGCATCAAGGCACTG (sugars k3 d10 k3, PS), the target mRNA inhibition stood at 49%.
In the case of GGTGAATTCAACTGGA (sugars k3 d10 k3, PS), the target mRNA inhibition came to 49%.
For ACCAGGAGTGCCAACC (sugars k3 d10 k3, PS), the target mRNA inhibition is 8%.
As to TTAGGTATGAGCTTCA (sugars k3 d10 k3, PS), the target mRNA inhibition is 18%.
Take ACTGATCTGACTTTGT (sugars k3 d10 k3, PS): the target mRNA inhibition came out at 32%.
On to GCCCCTGCGCTGGCTG (sugars k3 d10 k3, PS), for which the target mRNA inhibition amounted to 12%.
Next, GCTAAGCAATATCTTA (sugars k3 d10 k3, PS): 32%; CCTCAGTTACACATCC (sugars k3 d10 k3, PS): 49%; CCCTAACATGCAATAC (sugars k3 d10 k3, PS): 14%.
As for TTATTAAGAGCTGCTA (sugars k3 d10 k3, PS), the target mRNA inhibition was 27% and 44%.
Consider TGCAATACTGCAGATG (sugars k3 d10 k3, PS), for which the target mRNA inhibition stood at 20%.
Next, GAGGGAGTTGAGGCAA (sugars k3 d10 k3, PS): 24%; TAATAGAGCTACTTAG (sugars k3 d10 k3, PS): -16%; CTACTCTTCTAAGTCT (sugars k3 d10 k3, PS): 49%.
ATTTTAAAAAGGCTCG (sugars k3 d10 k3, PS): the target mRNA inhibition stood at 27%.
Turning to AGCTTGGCCAAGTCTG (sugars k3 d10 k3, PS), the target mRNA inhibition came out at 28%.
The figure for AACATCTGATTCTAAC (sugars k3 d10 k3, PS) is 27%.
On to GCTCGCCTCCTCCGTG (sugars k3 d10 k3, PS), for which the target mRNA inhibition turned out to be 27%.
Turning to CCCCAATGGAGGTATG (sugars k3 d10 k3, PS), the target mRNA inhibition was 37%.
In the case of ATTACACCAGTCCTTT (sugars k3 d10 k3, PS), the target mRNA inhibition was found to be 40%.
Take TATGAGCTTCAGACCT (sugars k3 d10 k3, PS): the target mRNA inhibition was -9%.
Next, ACAACAATTTAGAGCT (sugars k3 d10 k3, PS): 11%; CGCCGCCTCTTAAAGC (sugars k3 d10 k3, PS): 13%.
Next, TAAATTGGTAGCTTTC (sugars k3 d10 k3, PS): 74% and 80%; CTGATTCTAACAGCAC (sugars k3 d10 k3, PS): 55% and 49% and 50%; GGATTTGAACCCCGTC (sugars k3 d10 k3, PS): 30%.
In the case of GGATTAATGTAGTGTA (sugars k3 d10 k3, PS), the target mRNA inhibition is 86% and 96%.
For the sequence TAGATTCACTGAATCC (sugars k3 d10 k3, PS), the target mRNA inhibition is -4%.
The figure for ATATCTTAGTAACCTA (sugars k3 d10 k3, PS) is 15%.
For TAACATAGTTCAACCC (sugars k3 d10 k3, PS), the target mRNA inhibition was determined as 17%.
Next, AGCTTGTTCACCTGTT (sugars k3 d10 k3, PS): 37%; AAAGAGTGTTCGCAGA (sugars k3 d10 k3, PS): 54%; AAAAGTGGTTGCCCGC (sugars k3 d10 k3, PS): 28%.
As for TAATAGCAGCGGGATC (sugars k3 d10 k3, PS), the target mRNA inhibition came out at 30%.
As to CTGAAAGAACTAGTGG (sugars k3 d10 k3, PS), the target mRNA inhibition stood at 20%.
On to CTTCACCACGAACTGC (sugars k3 d10 k3, PS), for which the target mRNA inhibition was 43%.
With GCACGGGCTGTCTGCT (sugars k3 d10 k3, PS), the target mRNA inhibition is -12%.
Take GAATCTTACTTGATAA (sugars k3 d10 k3, PS): the target mRNA inhibition is 13%.
TGCTAGTCCTCAGGAT (sugars k3 d10 k3, PS): the target mRNA inhibition amounted to 19%.
On to TCATCAACAAAAGCCC (sugars k3 d10 k3, PS), for which the target mRNA inhibition is -8%.
Consider TTAGGATTCTAGACAG (sugars k3 d10 k3, PS), for which the target mRNA inhibition is 43%.
As for GCTGCAAACTTTAGAC (sugars k3 d10 k3, PS), the target mRNA inhibition is -9%.
Consider GTTACTCCAGCATAAA (sugars k3 d10 k3, PS), for which the target mRNA inhibition was found to be 0%.
Turning to CCTTTATCACTCAGCT (sugars k3 d10 k3, PS), the target mRNA inhibition is 54%.
Next, ATCACCTTCCGCCGCC (sugars k3 d10 k3, PS): 15%; GAAACTCCCCCATTAT (sugars k3 d10 k3, PS): 6%.
As for CTGTAAACCTGTGGTG (sugars k3 d10 k3, PS), the target mRNA inhibition came to 15%.
Regarding AGCTCTATACTTTGAA (sugars k3 d10 k3, PS), the target mRNA inhibition turned out to be 64%.
For the sequence AAAAAGGCTCGATGGA (sugars k3 d10 k3, PS), the target mRNA inhibition is 52%.
GAAAAAGCTTGTTCAC (sugars k3 d10 k3, PS): the target mRNA inhibition came out at 28%.
For TGGAGATCAGCTTCCG (sugars k3 d10 k3, PS), the target mRNA inhibition came out at 18%.
For TCTAAATTGGTTCTGG (sugars k3 d10 k3, PS), the target mRNA inhibition is 55% and 64%.
In the case of TGAGGCAAACGAAACA (sugars k3 d10 k3, PS), the target mRNA inhibition turned out to be 16%.
The figure for ATTCACCAAGGAGCTG (sugars k3 d10 k3, PS) is 39%; for AGTTTGCTCACATGCC (sugars k3 d10 k3, PS) it is 65% and 53%.
Consider CAAAATCCTGAATGGC (sugars k3 d10 k3, PS), for which the target mRNA inhibition is 10%.
Regarding TCACAAATACGACTGC (sugars k3 d10 k3, PS), the target mRNA inhibition came out at 23%.
Take CGCTCCTTCCTGGAAT (sugars k3 d10 k3, PS): the target mRNA inhibition is -19%.
On to GTTATGACTCAGAAGA (sugars k3 d10 k3, PS), for which the target mRNA inhibition stood at 26%.
On to AGCAGCACGGGCTGTC (sugars k3 d10 k3, PS), for which the target mRNA inhibition came to 10%.
Turning to CACCAAATTGCACTCG (sugars k3 d10 k3, PS), the target mRNA inhibition was 54% and 73%.
Regarding GTTACCATAAGTAAGT (sugars k3 d10 k3, PS), the target mRNA inhibition was found to be 2%.
The figure for ATTAAATTGATGGGCT (sugars k3 d10 k3, PS) is 20%; for ACATCAAGGATGTATA (sugars k3 d10 k3, PS) it is -6%; for AAGGCAAATCGCCATG (sugars k3 d10 k3, PS) it is 14%.
For AGTTATATTAGGTTCT (sugars k3 d10 k3, PS), the target mRNA inhibition is 22%.
Next, TCTTAGTAACCTATTG (sugars k3 d10 k3, PS): 19%; CCGTCCTGGAAACCAG (sugars k3 d10 k3, PS): 16%; CTTCTATTGGTATTAA (sugars k3 d10 k3, PS): 18%.
On to CCACTCTTGGAAAACG (sugars k3 d10 k3, PS), for which the target mRNA inhibition worked out at 23%.
ACTCCCCCATTATATT (sugars k3 d10 k3, PS): the target mRNA inhibition stood at 2%.
For CTGAAATCCCCTAGGG (sugars k3 d10 k3, PS), the target mRNA inhibition worked out at 30%.
Consider AAAACCCCCGGAACTT (sugars k3 d10 k3, PS), for which the target mRNA inhibition stood at 9%.
The figure for TGTTAACAGCTGCCTG (sugars k3 d10 k3, PS) is 39%.
Take TCAATTAATGCTAGTC (sugars k3 d10 k3, PS): the target mRNA inhibition stood at 35%.
For ACTATCACAATTCTTA (sugars k3 d10 k3, PS), the target mRNA inhibition stood at 13%.
As to CAGCGGTACACTCCTT (sugars k3 d10 k3, PS), the target mRNA inhibition stood at 36%.
As for TTAAGAGCTGCTATAA (sugars k3 d10 k3, PS), the target mRNA inhibition came to 6%.
